Key:
Experiment in all cases: KinomeScan
Format in all cases: binding
Settings in all cases: 1 μM
[1] = target: T1, ABL1(T315I)-phosphorylated (Homo sapiens, UniProt P00519, T315I)
T1 construct: purchased DiscoverX (KINOMEscan)

ADCK4 = target: T2, ADCK4 (Homo sapiens, UniProt Q96D53)
T2 construct: purchased DiscoverX (KINOMEscan)

AKT2 = target: T3, AKT2 (Homo sapiens, UniProt P31751)
T3 construct: purchased DiscoverX (KINOMEscan)

BMPR2 = target: T4, BMPR2 (Homo sapiens, UniProt Q13873)
T4 construct: purchased DiscoverX (KINOMEscan)

CDC2L5 = target: T5, CDC2L5 (Homo sapiens, UniProt Q14004)
T5 construct: purchased DiscoverX (KINOMEscan)

CDK2 = target: T6, CDK2 (Homo sapiens, UniProt P24941)
T6 construct: purchased DiscoverX (KINOMEscan)

CDK3 = target: T7, CDK3 (Homo sapiens, UniProt Q00526)
T7 construct: purchased DiscoverX (KINOMEscan)

CHEK2 = target: T8, CHEK2 (Homo sapiens, UniProt O96017)
T8 construct: purchased DiscoverX (KINOMEscan)

CSNK1A1 = target: T9, CSNK1A1 (Homo sapiens, UniProt P48729)
T9 construct: purchased DiscoverX (KINOMEscan)

CSNK1G1 = target: T10, CSNK1G1 (Homo sapiens, UniProt Q9HCP0)
T10 construct: purchased DiscoverX (KINOMEscan)

DCAMKL2 = target: T11, DCAMKL2 (Homo sapiens, UniProt Q8N568)
T11 construct: purchased DiscoverX (KINOMEscan)

EGFR(E746-A750del) = target: T12, EGFR(E746-A750del) (Homo sapiens, UniProt P00533, DEL746-750)
T12 construct: purchased DiscoverX (KINOMEscan)

[2] = target: T13, EGFR(L747-E749del, A750P) (Homo sapiens, UniProt P00533, A750P/DEL747-749)
T13 construct: purchased DiscoverX (KINOMEscan)

EGFR(L861Q) = target: T14, EGFR(L861Q) (Homo sapiens, UniProt P00533, L861Q)
T14 construct: purchased DiscoverX (KINOMEscan)

EPHA4 = target: T15, EPHA4 (Homo sapiens, UniProt P54764)
T15 construct: purchased DiscoverX (KINOMEscan)

EPHB4 = target: T16, EPHB4 (Homo sapiens, UniProt P54760)
T16 construct: purchased DiscoverX (KINOMEscan)

HIPK1 = target: T17, HIPK1 (Homo sapiens, UniProt Q86Z02)
T17 construct: purchased DiscoverX (KINOMEscan)

HIPK4 = target: T18, HIPK4 (Homo sapiens, UniProt Q8NE63)
T18 construct: purchased DiscoverX (KINOMEscan)

ICK = target: T19, ICK (Homo sapiens, UniProt Q9UPZ9)
T19 construct: purchased DiscoverX (KINOMEscan)

KIT(A829P) = target: T20, KIT(A829P) (Homo sapiens, UniProt P10721, A829P)
T20 construct: purchased DiscoverX (KINOMEscan)

LYN = target: T21, LYN (Homo sapiens, UniProt P07948)
T21 construct: purchased DiscoverX (KINOMEscan)

MAK = target: T22, MAK (Homo sapiens, UniProt P20794)
T22 construct: purchased DiscoverX (KINOMEscan)
T22 sequence (P20794 whole entry): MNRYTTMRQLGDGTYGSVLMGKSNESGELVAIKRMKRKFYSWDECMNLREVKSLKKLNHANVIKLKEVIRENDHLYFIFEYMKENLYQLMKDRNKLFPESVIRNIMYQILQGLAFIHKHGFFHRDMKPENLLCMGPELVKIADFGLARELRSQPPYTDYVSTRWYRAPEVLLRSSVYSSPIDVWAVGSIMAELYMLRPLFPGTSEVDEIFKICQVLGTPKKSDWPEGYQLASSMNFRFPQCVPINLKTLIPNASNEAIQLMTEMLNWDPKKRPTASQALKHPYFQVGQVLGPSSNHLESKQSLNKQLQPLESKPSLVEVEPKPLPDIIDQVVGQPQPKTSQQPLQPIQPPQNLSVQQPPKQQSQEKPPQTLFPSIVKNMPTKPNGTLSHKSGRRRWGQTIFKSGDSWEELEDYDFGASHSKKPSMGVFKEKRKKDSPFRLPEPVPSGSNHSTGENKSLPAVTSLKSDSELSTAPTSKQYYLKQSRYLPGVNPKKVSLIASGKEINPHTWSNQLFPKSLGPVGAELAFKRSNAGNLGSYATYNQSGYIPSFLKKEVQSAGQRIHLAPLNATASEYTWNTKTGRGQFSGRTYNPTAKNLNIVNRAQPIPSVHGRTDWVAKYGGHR

MAP3K3 = target: T23, MAP3K3 (Homo sapiens, UniProt Q99759)
T23 construct: purchased DiscoverX (KINOMEscan)

MAPKAPK2 = target: T24, MAPKAPK2 (Homo sapiens, UniProt P49137)
T24 construct: purchased DiscoverX (KINOMEscan)

MARK2 = target: T25, MARK2 (Homo sapiens, UniProt Q7KZI7)
T25 construct: purchased DiscoverX (KINOMEscan)

MEK4 = target: T26, MEK4 (Homo sapiens, UniProt P45985)
T26 construct: purchased DiscoverX (KINOMEscan)

MELK = target: T27, MELK (Homo sapiens, UniProt Q14680)
T27 construct: purchased DiscoverX (KINOMEscan)

MRCKA = target: T28, MRCKA (Homo sapiens, UniProt Q5VT25)
T28 construct: purchased DiscoverX (KINOMEscan)
T28 sequence (Q5VT25 whole entry): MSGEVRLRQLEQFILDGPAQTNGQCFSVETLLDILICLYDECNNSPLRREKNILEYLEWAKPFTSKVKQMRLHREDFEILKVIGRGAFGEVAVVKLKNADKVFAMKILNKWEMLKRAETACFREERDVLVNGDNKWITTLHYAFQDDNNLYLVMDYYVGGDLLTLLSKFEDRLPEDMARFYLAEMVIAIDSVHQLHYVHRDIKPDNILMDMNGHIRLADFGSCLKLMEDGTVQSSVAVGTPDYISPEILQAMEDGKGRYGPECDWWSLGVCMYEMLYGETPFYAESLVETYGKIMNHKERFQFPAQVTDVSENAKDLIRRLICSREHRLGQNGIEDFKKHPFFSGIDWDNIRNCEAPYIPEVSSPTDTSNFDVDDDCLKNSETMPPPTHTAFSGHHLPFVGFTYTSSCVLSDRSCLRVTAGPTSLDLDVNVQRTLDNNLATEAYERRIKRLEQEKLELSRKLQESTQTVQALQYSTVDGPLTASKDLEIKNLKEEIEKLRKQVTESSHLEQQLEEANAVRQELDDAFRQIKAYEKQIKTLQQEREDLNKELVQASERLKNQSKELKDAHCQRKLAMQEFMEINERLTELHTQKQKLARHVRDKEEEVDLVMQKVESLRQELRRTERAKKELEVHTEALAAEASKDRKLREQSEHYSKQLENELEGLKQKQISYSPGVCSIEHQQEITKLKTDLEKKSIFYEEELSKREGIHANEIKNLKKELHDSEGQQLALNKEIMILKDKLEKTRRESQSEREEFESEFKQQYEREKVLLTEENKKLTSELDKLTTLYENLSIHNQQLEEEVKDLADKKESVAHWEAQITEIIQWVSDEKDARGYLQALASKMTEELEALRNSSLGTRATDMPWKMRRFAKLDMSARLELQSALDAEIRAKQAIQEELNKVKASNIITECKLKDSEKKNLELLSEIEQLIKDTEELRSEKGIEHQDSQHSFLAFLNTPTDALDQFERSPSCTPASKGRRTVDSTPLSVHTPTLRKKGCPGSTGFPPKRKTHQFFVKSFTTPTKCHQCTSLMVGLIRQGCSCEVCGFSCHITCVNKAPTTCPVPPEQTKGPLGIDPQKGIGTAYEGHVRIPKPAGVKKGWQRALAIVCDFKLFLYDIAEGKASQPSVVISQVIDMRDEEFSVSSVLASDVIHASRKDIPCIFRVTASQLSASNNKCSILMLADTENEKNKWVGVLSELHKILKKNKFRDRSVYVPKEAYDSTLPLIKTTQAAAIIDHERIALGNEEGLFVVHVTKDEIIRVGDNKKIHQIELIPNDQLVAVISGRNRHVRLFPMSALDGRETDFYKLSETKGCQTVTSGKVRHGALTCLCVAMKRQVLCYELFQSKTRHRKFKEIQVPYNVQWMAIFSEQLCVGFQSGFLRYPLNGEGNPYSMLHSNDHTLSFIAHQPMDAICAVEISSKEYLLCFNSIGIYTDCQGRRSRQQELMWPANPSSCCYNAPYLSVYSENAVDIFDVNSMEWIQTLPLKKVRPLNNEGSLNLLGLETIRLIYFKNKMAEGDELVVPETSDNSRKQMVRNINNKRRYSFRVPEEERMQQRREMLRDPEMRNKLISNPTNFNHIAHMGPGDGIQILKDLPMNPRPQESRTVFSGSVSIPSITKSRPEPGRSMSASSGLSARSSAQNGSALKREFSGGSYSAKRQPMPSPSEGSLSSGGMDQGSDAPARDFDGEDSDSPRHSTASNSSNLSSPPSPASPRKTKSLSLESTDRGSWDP

MYLK4 = target: T29, MYLK4 (Homo sapiens, UniProt Q86YV6)
T29 construct: purchased DiscoverX (KINOMEscan)

NEK1 = target: T30, NEK1 (Homo sapiens, UniProt Q96PY6)
T30 construct: purchased DiscoverX (KINOMEscan)

NLK = target: T31, NLK (Homo sapiens, UniProt Q9UBE8)
T31 construct: purchased DiscoverX (KINOMEscan)

SGK3 = target: T32, SGK3 (Homo sapiens, UniProt Q96BR1)
T32 construct: purchased DiscoverX (KINOMEscan)

SLK = target: T33, SLK (Homo sapiens, UniProt Q9H2G2)
T33 construct: purchased DiscoverX (KINOMEscan)
T33 sequence (Q9H2G2 whole entry): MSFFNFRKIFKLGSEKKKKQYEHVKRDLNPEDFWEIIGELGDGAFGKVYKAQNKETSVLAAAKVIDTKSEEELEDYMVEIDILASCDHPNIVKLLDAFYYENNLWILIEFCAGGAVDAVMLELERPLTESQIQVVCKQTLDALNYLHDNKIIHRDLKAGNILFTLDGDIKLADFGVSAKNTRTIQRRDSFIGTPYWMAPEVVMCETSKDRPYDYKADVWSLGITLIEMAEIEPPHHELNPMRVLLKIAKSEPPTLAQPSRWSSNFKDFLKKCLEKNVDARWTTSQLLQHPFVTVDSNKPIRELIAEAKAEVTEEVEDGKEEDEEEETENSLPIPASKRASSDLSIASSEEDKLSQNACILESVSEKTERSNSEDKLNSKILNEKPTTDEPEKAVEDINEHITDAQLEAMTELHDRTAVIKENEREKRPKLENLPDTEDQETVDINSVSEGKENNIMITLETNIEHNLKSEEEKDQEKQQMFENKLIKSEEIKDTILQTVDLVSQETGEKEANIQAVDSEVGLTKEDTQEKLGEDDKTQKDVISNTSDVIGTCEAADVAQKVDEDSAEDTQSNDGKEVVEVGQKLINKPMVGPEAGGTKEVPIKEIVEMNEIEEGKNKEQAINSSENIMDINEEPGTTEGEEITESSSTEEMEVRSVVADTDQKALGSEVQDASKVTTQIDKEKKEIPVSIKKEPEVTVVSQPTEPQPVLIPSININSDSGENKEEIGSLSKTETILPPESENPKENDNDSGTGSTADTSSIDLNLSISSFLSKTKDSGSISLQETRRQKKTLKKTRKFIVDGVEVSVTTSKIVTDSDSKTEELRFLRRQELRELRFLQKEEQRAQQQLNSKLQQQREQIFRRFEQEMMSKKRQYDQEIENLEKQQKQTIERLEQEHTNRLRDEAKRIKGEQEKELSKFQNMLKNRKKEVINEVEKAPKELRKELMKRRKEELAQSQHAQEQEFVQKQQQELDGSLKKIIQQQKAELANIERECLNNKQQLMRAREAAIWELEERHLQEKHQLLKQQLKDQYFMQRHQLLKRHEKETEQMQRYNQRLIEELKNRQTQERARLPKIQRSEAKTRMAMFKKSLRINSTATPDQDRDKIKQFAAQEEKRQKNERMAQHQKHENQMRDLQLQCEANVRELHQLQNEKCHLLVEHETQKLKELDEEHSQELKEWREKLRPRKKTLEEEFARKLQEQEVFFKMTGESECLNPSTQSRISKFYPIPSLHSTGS

SRPK3 = target: T34, SRPK3 (Homo sapiens, UniProt Q9UPE1)
T34 construct: purchased DiscoverX (KINOMEscan)

TAOK3 = target: T35, TAOK3 (Homo sapiens, UniProt Q9H2K8)
T35 construct: purchased DiscoverX (KINOMEscan)
T35 sequence (Q9H2K8 whole entry): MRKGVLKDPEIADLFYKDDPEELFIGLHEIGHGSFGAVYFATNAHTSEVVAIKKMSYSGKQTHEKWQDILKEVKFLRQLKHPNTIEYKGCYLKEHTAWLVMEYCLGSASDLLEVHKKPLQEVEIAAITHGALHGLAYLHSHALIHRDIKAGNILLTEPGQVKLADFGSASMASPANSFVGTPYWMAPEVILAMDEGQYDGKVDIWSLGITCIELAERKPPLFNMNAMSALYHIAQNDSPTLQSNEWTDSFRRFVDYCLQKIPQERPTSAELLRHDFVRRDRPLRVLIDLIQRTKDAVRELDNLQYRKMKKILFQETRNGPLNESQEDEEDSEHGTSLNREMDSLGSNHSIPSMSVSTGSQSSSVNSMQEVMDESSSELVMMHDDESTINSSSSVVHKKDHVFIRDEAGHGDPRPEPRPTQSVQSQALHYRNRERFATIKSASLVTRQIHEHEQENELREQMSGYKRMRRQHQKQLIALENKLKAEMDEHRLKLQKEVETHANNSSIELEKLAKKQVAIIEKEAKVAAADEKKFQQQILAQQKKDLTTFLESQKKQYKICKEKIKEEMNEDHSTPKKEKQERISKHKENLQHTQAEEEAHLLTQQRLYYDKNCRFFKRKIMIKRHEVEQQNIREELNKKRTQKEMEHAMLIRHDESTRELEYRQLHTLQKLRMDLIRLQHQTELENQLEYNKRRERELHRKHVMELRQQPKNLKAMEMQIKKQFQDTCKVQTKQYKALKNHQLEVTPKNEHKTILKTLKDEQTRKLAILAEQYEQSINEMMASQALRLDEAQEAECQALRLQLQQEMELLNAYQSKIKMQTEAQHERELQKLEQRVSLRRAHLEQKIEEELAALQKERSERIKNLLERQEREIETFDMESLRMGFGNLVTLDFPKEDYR

TBK1 = target: T36, TBK1 (Homo sapiens, UniProt Q9UHD2)
T36 construct: purchased DiscoverX (KINOMEscan)

TNNI3K = target: T37, TNNI3K (Homo sapiens, UniProt Q59H18)
T37 construct: purchased DiscoverX (KINOMEscan)

T3 sequence (P31751 whole entry): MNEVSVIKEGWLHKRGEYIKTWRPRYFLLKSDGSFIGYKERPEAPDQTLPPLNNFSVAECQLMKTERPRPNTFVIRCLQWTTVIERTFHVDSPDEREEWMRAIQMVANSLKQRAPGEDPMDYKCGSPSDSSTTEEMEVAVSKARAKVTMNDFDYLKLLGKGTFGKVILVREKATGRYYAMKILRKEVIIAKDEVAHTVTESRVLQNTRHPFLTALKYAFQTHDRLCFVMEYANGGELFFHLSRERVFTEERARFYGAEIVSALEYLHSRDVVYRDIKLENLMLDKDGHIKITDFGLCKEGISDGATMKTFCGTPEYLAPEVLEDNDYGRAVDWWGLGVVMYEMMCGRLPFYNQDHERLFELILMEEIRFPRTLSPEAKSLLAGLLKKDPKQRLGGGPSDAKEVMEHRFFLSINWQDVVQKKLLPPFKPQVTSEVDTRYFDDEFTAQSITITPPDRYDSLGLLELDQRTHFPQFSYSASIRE

COc1cc(/C=C2\N=C(N)NC2=O)ccc1O [Polyandrocarpamine A]
Score [1]: 85
Score (ADCK4): 98
Score (AKT2): 100
Score (BMPR2): 95
Score (CDC2L5): 100
Score (CDK2): 91
Score (CDK3): 100
Score (CHEK2): 100
Score (CSNK1A1): 100
Score (CSNK1G1): 100
Score (DCAMKL2): 100
Score (EGFR(E746-A750del)): 100
Score [2]: 100
Score (EGFR(L861Q)): 100
Score (EPHA4): 83
Score (EPHB4): 100
Score (HIPK1): 52
Score (HIPK4): 85
Score (ICK): 100
Score (KIT(A829P)): 91
Score (LYN): 89
Score (MAK): 91
Score (MAP3K3): 100
Score (MAPKAPK2): 100
Score (MARK2): 100
Score (MEK4): 100
Score (MELK): 100
Score (MRCKA): 100
Score (MYLK4): 96
Score (NEK1): 100
Score (NLK): 100
Score (SGK3): 100
Score (SLK): 100
Score (SRPK3): 100
Score (TAOK3): 87
Score (TBK1): 100
Score (TNNI3K): 98
